US12390467B2, “Necroptosis inducers or autophagy inhibitors or a combination thereof” (The University of Toledo, priority 2018, dated 2025)
Where two headings read alike, the source gives them in different places.

How the values were obtained:
Type in all cases: cell-based
[1] = target: T1, BCRP (ABCG2), MCF-7 M100 breast cancer cells (Homo sapiens, UniProt Q9UNQ0); assay: Hoechst 33342 assay for BCRP modulation; conditions: concentration dependent
T1 construct: endogenous in cells; host or cells: MCF-7 M100 breast cancer cells
Description: Ability of BCRP to efflux nuclear stain Hoechst 33342 was used to identify the molecules which interfere with BCRP transporter activity. About 14000 cells of MCF-7 M100 breast cancer cells were seeded in each well in 96 well plates and allowed to grow until confluency for 4-5 days. Then media was replaced with phenol red free RPMI media and cells were treated with indicated concentrations of TPH104s and 5 μg/mL of Hoechst 33342. Fluorescence measured after 60 minutes with excitation at 361/20 nm and at emission 497/20 nm using the BioTek Cytation 5 imaging multi-mode reader (Bio-Tek, Winooski, VT). DMSO (0.5% v/v) was used as the vehicle, and 0.5 μM of BCRP inhibitor, Ko143 was used as a positive control and 15 μM of P-gp modulator, verapamil was used as negative control.

BT-20 or MDA-MB468 cells = assay: Cellular reactive oxygen species (ROS) detection assay (H2DCFDA); conditions: 1, 2, and 5 μM, 12 h
Description: To assess the effect of TPH104 on the generation of ROS, a cell permeant, fluorogenic dye, 2′,7′-dichlorofluorescin diacetate, H2DCFDA, was used. A 5 mM stock solution was prepared using DMSO and PBS was used to prepare the 3 μM working solution of H2DCFDA. The TNBC cells were seeded in a 6-well plate as described in the cell cycle assay. After overnight incubation, cells were incubated with different TPH104 (1, 2, 5 μM) or vehicle for 12 h or with 2 μM of paclitaxel (positive control) for 2 h. The H2DCFDA dye (3 μM) was added to each well and the plate was incubated for an additional 30 minutes. Subsequently, cells were washed 3 times in PBS to remove excess H2DCFDA dye. Thereafter, cells from each well were captured from randomly selected fields using a fluorescent microscope (EVOS-FLC cell imaging system, Thermofisher scientific) at 40× to determine the 2′,7′-dichlorofluorescein (DCF) fluorescence intensity, which is positively correlated with the generation of ROS.

[2] = tested on: MDA-MB231, MDA-MB468, and BT-20; assay: Cell colony formation assay; conditions: vs vehicle
Description: This assay was used to measure the size and rate of colony formation for TNBC cells, with or without TPH104, as previously reported. Briefly, in a 6-well cell culture plate, cells were seeded at a density of 250,000 cells/well and allowed to grow/attach overnight. The next day, the cells were incubated with different concentration of TPH104 (0.1, 1, or 10 μM) or vehicle and incubated for 12 h at 37° C. Following incubation, the cells were harvested, counted, and reseeded at a density of 500-800 cells/well (1 ml in each well), in a new 6-well plate, with complete medium for 10 days. The medium was changed every 2 days in order to prevent cell starvation. On the 10th day, the colonies were fixed with absolute methanol at room temperature for 30 minutes. Subsequently, cells were stained with 0.1% crystal violet dye (Sigma, USA) for an additional 30 minutes. Finally, the fixed and stained colonies were viewed, pictured (at 4, 10, and 20×) and counted using an EVOS-FLC microscope (Thermo Fisher Scientific, Wayne, MI, USA). The following equation was used to calculate the colony formation rate: Colony formation rate=number of colonies formed/number of seeded cells (500)×100% Trans-Well Migration Assay

[3] = tested on: normal human mammary epithelial cells (HMEC); assay: MTT cell viability assay, HMEC
Description: (§1) The following cancer and non-cancer cell lines were used in the initial cytotoxicity screening of the TPH104 compounds: triple negative breast cancer (TNBC): MDA-MB468, MDA-MB 231, and BT-20; non-TNBC: MCF-7 and ZR-75-1; ovarian: Ov2008; prostate: DU145; colon: HCT-116, S1, and LOVO; lung: H460; normal kidney: HEK-293; normal breast: HMEC; and normal colon: CRL-1459. All cells were cultured in Dulbecco's modified Eagle medium (DMEM), supplemented with 10% fetal bovine serum (FBS), and 1% penicillin/streptomycin (P/S). Cells were allowed to grow as adherent monolayers in T25 flasks in a humidified incubator with 5% CO2 at 37° C. for a period of 24 h, unless otherwise specified for certain experiments.
(§2) The MTT assay was used to determine the cytotoxicity of all of the compounds. Briefly, in a 96-well flat-bottom cell culture plate, the cells were seeded at a density between 3-5×10^3 cells/well (180 μl in each well) and incubated for 24 h (a hemocytometer was used for cell counting). The next day, the cells were incubated with different concentrations of the nine compounds (0, 0.1, 0.3, 1, 3, 10, 30, and 100 μM) for 72 h. After 72 h, 20 μl of 5 mg/ml of 3-(4,5-dimethylthiazol-2-yl)-2,5-diphenyltetrazolium bromide (MTT) was added to the plate and incubated with the cells for 3 h at 37° C. In this experiment, the living cells will reduce the soluble MTT dye to non-soluble purple formazan crystals. Following incubation, the media containing MTT removed via suction and 100 μL of 100% dimethyl sulfoxide (DMSO) was added to dissolve the formazan crystals. Subsequently, the plate was shaken for 2 minutes and the absorbance was measured at a wavelength of 570 nm using a SpectraMax iD3 Multi-Mode Microplate Reader (Molecular Devices, Sunnyvale, CA). The IC50 values of each compound were calculated and used to determine the selectivity ratio (IC50 in normal cells/IC50 in cancer cells) of each compound as previously described. Based on the results obtained from these experiments, the compound TPH104, which had the lowest IC50 value, was selected for further experiments.

[4] = tested on: MCF-7 (non-TNBC cell line); assay: MTT cell viability assay, MCF-7; conditions: read-out: IC50 ± SD, MCF-7
Description: as §1, §2

[5] = tested on: lung (H460), ovarian (OV2008), prostate (DU145), and colon (HCT-116, LOVO, S1); assay: MTT cytotoxicity screening, other cancer types; conditions: H460, OV2008, DU145, HCT-116, LOVO, less potently than in TNBC
Description: as §1
The MTT assay was used to determine the cytotoxicity of all of the compounds. […] Subsequently, the plate was shaken for 2 minutes and the absorbance was measured at a wavelength of 570 nm using a SpectraMax iD3 Multi-Mode Microplate Reader (Molecular Devices, Sunnyvale, CA). The IC50 values of each compound were calculated and used to determine the selectivity ratio (IC50 in normal cells/IC50 in cancer cells) of each compound as previously described. […]
Table 3 (FIG. 30)-Cytotoxicity screening of TPH104 compounds against Colon (HCT-116, LOVO and S1), Prostate (DU145), Ovarian (Ov 2008), and Lung (H460) cancer cell lines. Cell survival was determined using MTT assay as described. […]

T1 sequence (Q9UNQ0 whole entry): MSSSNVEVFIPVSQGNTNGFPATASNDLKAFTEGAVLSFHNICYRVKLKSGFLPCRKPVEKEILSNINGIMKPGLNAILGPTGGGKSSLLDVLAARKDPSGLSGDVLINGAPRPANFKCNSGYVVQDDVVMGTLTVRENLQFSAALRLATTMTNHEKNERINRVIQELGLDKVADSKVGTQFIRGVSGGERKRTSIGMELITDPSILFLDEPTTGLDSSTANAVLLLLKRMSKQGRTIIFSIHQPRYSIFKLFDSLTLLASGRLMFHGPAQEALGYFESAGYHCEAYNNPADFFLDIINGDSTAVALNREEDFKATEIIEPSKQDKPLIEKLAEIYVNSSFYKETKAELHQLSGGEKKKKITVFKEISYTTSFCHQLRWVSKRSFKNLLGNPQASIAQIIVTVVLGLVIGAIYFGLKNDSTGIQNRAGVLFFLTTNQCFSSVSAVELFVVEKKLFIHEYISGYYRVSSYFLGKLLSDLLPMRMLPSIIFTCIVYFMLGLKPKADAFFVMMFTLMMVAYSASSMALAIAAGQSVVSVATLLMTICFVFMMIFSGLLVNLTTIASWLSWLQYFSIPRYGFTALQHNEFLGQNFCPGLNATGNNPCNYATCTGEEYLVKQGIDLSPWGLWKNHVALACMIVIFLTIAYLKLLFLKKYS

## COc1ccc(O)c(/C=N/Nc2ncnc3scc(-c4ccc(C)cc4)c23)c1 [TPH104]
[1]
  efflux function of ABCG2: blocking the efflux function
BT-20 or MDA-MB468 cells
  DCF fluorescence levels (ROS): did not significantly alter
[2]; 0.1, 1, 10 μM for 12 h
  colony formation rate: significantly inhibited
[2]; 1 and 10 μM, all 3 TNBC cell lines
  number and size of the colonies formed: significantly decreased
[3]
  selectivity fold on TNBC cells compared to normal human mammary epithelial cells: more than 100 fold
[3]; HMEC vs TNBC cells
  IC50 for HMEC, fold higher than the IC50 values for TNBC cells: 330-411 fold
[3]; Homo sapiens, HMEC, MTT, 72 h, Normal, read-out: IC50 ± SD, HMEC
  IC50: 82.3 µM
[4]; 72 h
  IC50: 3.84 ± 1.36 µM
[4]; Homo sapiens, MCF7, 72 h
  IC50: 3.8 µM
[5]
  proliferation of other types of cancer: significantly inhibited
